The text below walks through data of publication PMC11785640, “Structure-based inhibition of acetylcholinesterase and butyrylcholinesterase with 2-Aryl-6-carboxamide benzoxazole derivatives: synthesis, enzymatic assay, and in silico studies” (Molecular Diversity, 2024).

A word on the IC50: it is the concentration that inhibits the measured activity by half. As usually defined, the Ki is the dissociation constant of the complex between target and ligand, obtained from inhibition or displacement. The low end stands for tighter binding, the high end for weaker binding.

Assay [1] concerns AChE. The following applies: cited from earlier work.
Assay [2] has as its target AChE (Electrophorus electricus, UniProt O42275). In words: biochemical. The following applies: for Ki: from Lineweaver-Burk graphs, mean ± SD, triplicate; for Selectivity index (AChE/BChE): ratio AChE/BChE. The class given is biochemical. How it is done: (§1) These analogs were dissolved in DMSO at an initial concentration of 1 mg/mL. Around 1% of DMSO was present in the final reaction mixture. Acetylthiocholine iodide (AChI)/butyrylcholine iodide (BChI) were used as substrates for enzymatic reactions. […] The mixture was incubated at 20 °C for 20 min. Then, 50 µL of 5,5’-dithio-bis 2-nitro-benzoic acid (DTNB, 0.5 mM) and AChI/BChI were added and enzymatic reactions were initiated.
(§2) Lineweaver-Burk graphs were used for the calculation of Ki and the other parameters as described in prior studies. The Ki values were taken out from this graph. All analyses were conducted independently in triplicate, and result data are expressed as mean values ± SD [59].

In the next assay the target is BChE (Equus caballus, UniProt P81908). As to the kind of experiment: biochemical. The format is biochemical. Conditions: for Ki: from Lineweaver-Burk graphs, mean ± SD, triplicate. Here is the method:
as §1, §2

Chain of AChE (Electrophorus electricus, UniProt O42275) (O42275 24-633): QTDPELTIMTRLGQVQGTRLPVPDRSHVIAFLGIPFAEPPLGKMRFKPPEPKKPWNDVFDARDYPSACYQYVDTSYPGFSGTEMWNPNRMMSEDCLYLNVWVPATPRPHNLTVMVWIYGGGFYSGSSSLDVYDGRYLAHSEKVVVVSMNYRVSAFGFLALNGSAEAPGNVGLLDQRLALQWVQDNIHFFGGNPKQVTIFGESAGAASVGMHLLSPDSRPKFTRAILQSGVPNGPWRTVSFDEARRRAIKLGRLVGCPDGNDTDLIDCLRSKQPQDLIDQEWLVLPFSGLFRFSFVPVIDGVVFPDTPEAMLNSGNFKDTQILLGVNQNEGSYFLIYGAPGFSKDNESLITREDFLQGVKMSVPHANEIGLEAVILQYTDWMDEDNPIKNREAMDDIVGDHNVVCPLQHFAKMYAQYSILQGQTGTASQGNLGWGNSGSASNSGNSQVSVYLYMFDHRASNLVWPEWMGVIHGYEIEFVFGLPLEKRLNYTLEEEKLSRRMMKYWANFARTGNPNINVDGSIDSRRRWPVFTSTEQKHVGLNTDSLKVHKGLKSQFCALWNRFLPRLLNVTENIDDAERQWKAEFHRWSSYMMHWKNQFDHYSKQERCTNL
Chain of BChE (P81908 whole entry): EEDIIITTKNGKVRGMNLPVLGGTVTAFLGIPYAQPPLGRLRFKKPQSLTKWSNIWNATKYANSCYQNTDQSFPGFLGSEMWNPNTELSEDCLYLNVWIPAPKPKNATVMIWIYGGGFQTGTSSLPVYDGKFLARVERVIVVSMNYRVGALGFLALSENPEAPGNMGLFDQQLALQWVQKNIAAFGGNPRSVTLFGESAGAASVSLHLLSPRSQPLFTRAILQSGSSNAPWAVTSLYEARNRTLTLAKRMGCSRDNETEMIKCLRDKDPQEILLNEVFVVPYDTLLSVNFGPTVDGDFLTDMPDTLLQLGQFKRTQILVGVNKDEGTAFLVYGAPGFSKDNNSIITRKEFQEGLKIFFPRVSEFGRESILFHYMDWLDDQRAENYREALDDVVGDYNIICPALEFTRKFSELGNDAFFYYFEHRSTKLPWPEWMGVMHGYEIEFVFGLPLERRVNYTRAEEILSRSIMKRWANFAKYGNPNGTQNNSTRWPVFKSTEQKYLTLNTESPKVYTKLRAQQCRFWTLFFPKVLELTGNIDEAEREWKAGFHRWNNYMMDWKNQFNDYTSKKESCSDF

As for `CN(C)C(=O)Oc1ccccc1-c1nc2ccccc2o1` [Compound 1], in the assay on AChE [1], the “concentration at which it inhibits AChE” value is listed as 58.2 nM.
As to `CCN1CCN(CC(=O)Nc2ccc3nc(-c4ccc(C(C)(C)C)cc4)oc3c2)CC1` [Compound 3], the IC50 with AChE [1] was 0.00367 µM.
For `Cc1ccc(CC(=O)Nc2ccc3nc(-c4ccccc4)oc3c2)cc1` [Compound 4], the IC50 with AChE [1] was 0.0384 µM.
Consider `S=c1oc2ccccc2n1CN1CCOCC1` [Compound 5, 3-morpholino methyl-2-thione benzoxazole], for which, in the assay with AChE [1], the IC50 is 0.044 µM.
For the molecule `CCN(CC)Cn1c(=S)oc2ccccc21` [Compound 6, 3-(diethylamino) methyl-2-thione benzoxazole], the IC50 in the assay with AChE [1] is 0.038 µM.
With `O=C(c1ccc2nc(-c3ccc[nH]3)oc2c1)N1CCCC1` [Compound 34, (2-(1 H-pyrrol-2-yl)benzo[d]oxazol-6-yl)(pyrrolidin-1-yl)methanone], at AChE [2], it took 26.7 nM to reach half-maximal inhibition (IC50), the Ki turned out to be 15.5 ± 1.96 nM and the “Selectivity index (AChE/BChE)” value stood at 0.32. For the same molecule, at BChE, the IC50 was determined as 53.2 nM and the affinity corresponds to a Ki of 48.2 ± 2.56 nM.
With `O=C(c1ccc2nc(-c3ccc[nH]3)oc2c1)N1CCCCC1` [Compound 35, (2-(1 H-pyrrol-2-yl)benzo[d]oxazol-6-yl)(piperidin-1-yl)methanone], at AChE [2], half-maximal inhibition (IC50) required 19 nM, the Ki was 12.3 ± 1.28 nM and the “Selectivity index (AChE/BChE)” value is on record as 0.27. Further, on BChE, 49.2 nM corresponded to half-maximal inhibition (IC50) and the affinity corresponds to a Ki of 44.5 ± 7.43 nM.
As for `O=C(c1ccc2nc(-c3ccc[nH]3)oc2c1)N1CCOCC1` [Compound 36, (2-(1 H-pyrrol-2-yl)benzo[d]oxazol-6-yl)(morpholino)methanone], at AChE [2], inhibition was half-maximal at 12.6 nM (IC50); the “type of inhibition, AChE” value is “mixed-type”; affinity was put at a Ki of 7.74 ± 0.75 nM; the “Selectivity index (AChE/BChE)” value is 0.38. For the same molecule, at BChE, the IC50 amounted to 25.4 nM; the “type of inhibition, BChE” value is reported as “mixed-type”; the Ki stood at 20.3 ± 1.56 nM.
Take `CN(C)C(=O)c1ccc2nc(-c3ccco3)oc2c1` [Compound 37, 2-(Furan-2-yl)-N,N-dimethylbenzo[d]oxazole-6-carboxamide]: on AChE [2], the IC50 was determined as 46.4 nM, the Ki was determined as 45.7 ± 4.3 nM and the “Selectivity index (AChE/BChE)” value is 0.37. At BChE, this molecule returned an IC50 of 147 nM and a Ki of 123 ± 15.3 nM.
On the same counts, the results for `CCN(CC)C(=O)c1ccc2nc(-c3ccco3)oc2c1` [Compound 38, N,N-diethyl-2-(furan-2-yl)benzo[d]oxazole-6-carboxamide] are 52.8 nM, 41.2 ± 7.41 nM, 0.69, 70.4 nM and 59.4 ± 8.01 nM.
On the same counts, the results for `CCCN(CCC)C(=O)c1ccc2nc(-c3ccco3)oc2c1` [Compound 39, 2-(Furan-2-yl)-N,N-dipropylbenzo[d]oxazole-6-carboxamide] are 28 nM, 38.5 ± 8.48 nM, 0.59, 82.2 nM and 65.2 ± 8.33 nM.
In the same order, the values of `O=C(c1ccc2nc(-c3ccco3)oc2c1)N1CCCC1` [Compound 40] are 52.1 nM, 34.9 ± 7.28 nM, 0.36, 101 nM and 95.6 ± 20.2 nM.
As for `O=C(c1ccc2nc(-c3ccco3)oc2c1)N1CCCCC1` [Compound 41], on AChE [2], the IC50 was found to be 25.3 nM, the affinity corresponds to a Ki of 30.7 ± 6.03 nM and the “Selectivity index (AChE/BChE)” value is recorded as 0.41. On BChE, this molecule gave an IC50 of 80.1 nM and a Ki of 75.5 ± 18.4 nM.
With `O=C(c1ccc2nc(-c3ccco3)oc2c1)N1CCOCC1` [Compound 42], on AChE [2], the concentration for half-maximal inhibition (IC50) worked out at 21 nM, the Ki was found to be 14.6 ± 3.01 nM and the “Selectivity index (AChE/BChE)” value came to 0.30. At BChE, this molecule displayed an IC50 of 58.7 nM and a Ki of 48.6 ± 4.55 nM.
Regarding `CN(C)C(=O)c1ccc2nc(-c3cccs3)oc2c1` [Compound 43, N,Ndimethyl-2-(thiophen-2-yl)benzo[d]oxazole-6-carboxamide], on AChE [2], the IC50 stood at 29.2 nM; the affinity, expressed as Ki, was 19.9 ± 0.73 nM; the “Selectivity index (AChE/BChE)” value worked out at 0.17. Besides, at BChE, it took 130 nM to reach half-maximal inhibition (IC50) and the affinity, expressed as Ki, was 120 ± 25.7 nM.
On the same counts, the results for `CCN(CC)C(=O)c1ccc2nc(-c3cccs3)oc2c1` [Compound 44, N,N-2-(thiophen-2-yl)benzo[d]oxazole-6-carboxamide] are 27.6 nM, 15.7 ± 0.85 nM, 0.27, 75.4 nM and 61 ± 11.1 nM.
In the same order, the values of `CCCN(CCC)C(=O)c1ccc2nc(-c3cccs3)oc2c1` [Compound 45, N,Ndipropyl-2-(thiophen-2-yl)benzo[d]oxazole-6-carboxamide] are 30.1 nM, 21.8 ± 1.45 nM, 0.30, 85.2 nM and 72.5 ± 12.6 nM.
On the same counts, the results for `O=C(c1ccc2nc(-c3cccs3)oc2c1)N1CCCC1` [Compound 46, Pyrrolidin-1-yl(2-(thiophen-2-yl)benzo[d]oxazol-6-yl)methanone] are 31.5 nM, 29.2 ± 0.64 nM, 0.33, 84.3 nM and 87.5 ± 13.6 nM.
Turning to `O=C(c1ccc2nc(-c3cccs3)oc2c1)N1CCCCC1` [Compound 47, Piperidin-1-yl(2-(thiophen-2-yl)benzo[d]oxazol-6-yl)methanone], on AChE [2], the IC50 came out at 24 nM, the Ki was 22.3 ± 4.11 nM and the “Selectivity index (AChE/BChE)” value came to 0.48. On BChE, it took 65.2 nM to reach half-maximal inhibition (IC50) and the Ki is 46.6 ± 2.1 nM.
On the same counts, the results for `O=C(c1ccc2nc(-c3cccs3)oc2c1)N1CCOCC1` [Compound 48, Morpholino(2-(thiophen-2-yl)benzo[d]oxazol-6-yl)methanone] are 17.9 nM, 10.6 ± 0.58 nM, 0.47, 33 nM and 22.7 ± 3.07 nM.
